Test results taken from patent US9682970B2, “Fluorescent compounds and uses thereof” (BIOTIUM, INC., priority 2012, dated 2017).

Legend:
[1] = Photostability of the dye; format: physicochemical
calf thymus dsDNA = assay: Absorption and emission spectra of nucleic acid binding dyes; format: physicochemical
Procedure: All absorption spectra were measured on a Beckman Coulter DU-800 spectrophotometer at room temperature. All fluorescence spectra were measured on a Hitachi F-4500 fluorescence spectrophotometer at room temperature. To record the complete emission profiles, excitation wavelengths were set 30 nm shorter than the absorption maxima of the dyes. The dsDNA used was calf thymus dsDNA from Sigma. When dsDNA was present in the dye solutions, spectra were recorded after the dyes had been incubated with the DNA for at least 10 minutes.

[2] = test system: HeLa cells fixed in 4% paraformaldehyde; assay: Staining of fixed cells with Compound 36; format: cell-based; details: 10 uM in blocking buffer, 10 minutes, Cy3 channel
Procedure: The high photostability and relatively long emission wavelength (˜565 nm) make the dye a useful cell counterstain. HeLa cells were plated on an 8-chambered Lab-Tek cover glass at 4×10^4 cells per chamber and cultured overnight. The day after plating, the cells were fixed in 4% paraformaldehyde/PBS for 15 minutes at room temperature. The cells were rinsed in PBS and blocked in PBS containing 5% normal goat serum and 0.1% Triton X-100 for 30 minutes at room temperature. Cells were stained with 10 uM Dye 36 in blocking buffer for 10 minutes at room temperature and imaged in the same solution by confocal microscopy in the Cy3 channel of a Zeiss LSM 700 confocal microscope.

calf thymus DNA = assay: DNA quantitation in solution (fluorescence linearity)
Procedure: compounds 5, 7 and related compounds according to the invention can be used to quantitate double-stranded DNA in solution with high sensitivity and accuracy over a wide range of DNA concentrations, as shown in FIGS. 4 and 5. […] At […] dye concentration, compound 5 fluorescence is linear from 0.04-250 ng (FIG. 5).
The data shown in FIG. 4A was obtained under the following conditions: compound 7 at 0.5 μM was prepared in TE buffer (10 mM Tris, 1 mM EDTA, pH 7.5), and pipetted into wells of black 96-well plates at 200 μL per well. Two-fold dilutions of calf thymus DNA were prepared in TE buffer starting at 0.2 ng/uL, and 10 μL of each DNA dilution was added per 96 well to obtain a standard curve of 2 ng to 0.015 ng per well. The plates were incubated for five minutes at room temperature, protected from light, then read at 468 nm excitation and 507 nm emission using a Molecular Devices Gemini XS fluorescent plate reader. Triplicate samples were averaged and background fluorescence (no DNA) was subtracted. Fluorescence values were plotted against the DNA amount (ng/well). […] The R^2 values for linear regression are shown next to each curve. The data shown in FIG. 4B were obtained under similar condition except that compound 5 at 1 uM was used and serial DNA dilutions were from 250 ng to 0.04 ng.

Jurkat cells = assay: Cell number quantitation in cell suspensions; format: cell-based; details: 10 uM final dye, 30 minutes at 37° C., 440,000 to 860 cells per well
Procedure: The data in FIG. 7A were obtained under the following conditions: compound 5 or 7 at 20 uM in Hank's Balanced Salt Solution (HBSS) was pipetted into optical bottom black 96 well tissue culture plates at 50 μL per well. Two-fold serial dilutions of Jurkat cells in suspension culture were prepared in Hank's Balanced Salt Solution (HBSS) and pipetted into black 96 well plates at 50 μL per well to obtain a dilution curve of 440,000 to 860 cells per well, and a final dye concentration of 10 uM. Plates were incubated for 30 minutes at 37° C. in a 5% CO2 incubator, and fluorescence was read at 468/507 nm in a Molecular Devices Gemini XS fluorescent plate reader. Triplicate samples were averaged and background fluorescence (no cells) was subtracted. Fluorescence values were plotted against the DNA amount (ng/well). The R^2 values for linear regression are shown next to each curve. For comparison, cell numbers were quantitated using the CyQUANT NF Cell Proliferation Assay Kit (Life Technologies) according to the kit manual.

adherent HeLa cells = assay: Cell number quantitation in adherent cell cultures; format: cell-based; details: 10 uM, 30 minutes at 37° C., 50,000 to 100 cells per well
Procedure: The data in FIG. 7B was obtained under the following conditions: adherent HeLa cells were seeded at densities ranging between 50,000 and 100 cells per well in optical bottom black 96 well tissue culture plates and allowed to adhere overnight at 37° C. in a 5% CO2 incubator. On the day after seeding, the cells were washed with HBSS and incubated in HBSS containing Dye 5 or Dye 7 at 10 uM for 30 minutes at 37° C. Fluorescence was read at 468/507 nm in a Molecular Devices Gemini XS fluorescent plate reader. Triplicate samples were averaged and background fluorescence (no cells) was subtracted. Fluorescence values were plotted against the DNA amount (ng/well). The R^2 values for linear regression are shown next to each curve. For comparison, cell numbers were quantitated using the CyQUANT NF Cell Proliferation Assay Kit (Life Technologies according to the kit manual.

live HeLa cells = assay: Staining of live cells; format: cell-based; details: 10 uM, 30 minutes at 37 C
Procedure: (§1) The images in the top panel of FIG. 6 were obtained under the following conditions: live HeLa cells were incubated with 10 uM compound 7, compound 8, or Dye 5 for 30 minutes at 37 C in a CO2 incubator. The images in the bottom panel of FIG. 6 were obtained under the following conditions: HeLa cells were formaldehyde-fixed, permeabilized, and blocked according to standard immunofluorescence staining protocols. Cell were stained with 10 μM compound 7, 8 or 5 in PBS/5% BSA for 30 minutes, then washed with PBS buffer and imaged. Live and fixed cells were imaged using an Olympus epifluorescence microscope equipped with a FITC filter set, Retiga 2000R Fast 1394 camera (QImaging), and Image-Pro Express software (Media Cybernetics).

[3] = test system: HeLa cells formaldehyde-fixed, permeabilized; assay: Staining of fixed cells; format: cell-based; details: 10 μM in PBS/5% BSA, 30 minutes
Procedure: as §1

[4] = test system: CD3e PCR products (WT or single base pair change); assay: High-resolution melt curve analysis (HRM); parameters: species or system human; details: compound 7 (0.07 μM) spiked into EvaGreen Master Mix
Description: The addition of a small amount of compound 7 to existing real time HRM Master Mixes can improve the resolution of the melting curves leading to higher confidence calls by HRM software. FIGS. 12 and 13 show normalized graphs (12A, 13A) and difference graphs (12B, 13B) from the HRM analysis of PCR products generated from template plasmids containing either a WT copy of CD3e or a version with a single base pair change. The genotype calls of the HRM software are also shown (12C, 13C).
The data in FIGS. 12 and 13 were collected under the following conditions: PCR reactions were performed as in FIG. 10 with 500 nM CD3e Forward primer (5′-[…]-3′) and […] CD3e Reverse primer (5′-[…]-3′). To each reaction, one microliter of approximately 1×10^6 copies/μl pME-human CD3e-6× His-HA was added, either with a wild type (WT) sequence or with a single nucleotide change (C to T) at base 54 from the start codon of the CD3e sequence. HRM analysis was performed on the RotorGeneQ immediately following template amplification from a temperature range of 76.5-86.5° C. ramping 0.1° C. every two seconds after initial 90 second pre-melt conditioning.

[5] = test system: GAPDH cDNA from Jurkat cell purified mRNA; assay: Real-time PCR with cDNA; details: 0.34 uM dye
Procedure: Compound 7 and related dyes can be used in real time PCR experiments to monitor amplification of target cDNA. In FIG. 9, serial dilutions of total cDNA generated from Jurkat cell purified mRNA were added to PCR reaction mixes containing 0.34 uM compound 7 and real time PCR was performed.
The data in FIG. 9 were collected under the following conditions: mRNA was purified from 4×10^6 Jurkat cells using Qiagen's RNeasy Kit and cDNA was then generated using oligo-dT primers and the ProtoScript First Strand cDNA Synthesis Kit (New England BioLabs). Serial 1:2 dilutions of the cDNA in water were prepared and added to PCR reactions consisting of a final concentration of 25 mM Tris-HCl (pH 8.6), 5 mM KCl, 10 mM (NH4)2SO4, 2 mM MgCl2, 2.5% glycerol, 5% DMSO, 200 uM dNTPs (New England BioLabs), 0.01% Tween-20, non-acetylated BSA (Sigma), 500 nM GAPDH Forward primer (5′-GAAGGTGAAGGTCGGAGTC-3′), 500 nM GAPDH Reverse primer (5′-[…]-3′) (Integrated DNA Technologies), 1 U Taq polymerase (Syzygy) modified using a HotStart Polymerase Modification Kit (Biotium, Inc.) and 0.34 uM compound 7. One microliter cDNA was added to each 20 ul reaction. Real time PCR was performed using the RotorGeneQ as described for FIG. 8.

[6] = test system: linearized GAPDH-containing plasmid DNA; assay: Real-time PCR with plasmid DNA; details: 0.34 uM dye, 5×10^5 copies plasmid
Procedure: Compound 7 and related dyes can be used in real time PCR experiments to monitor amplification of target plasmid DNA. In FIG. 8, 5×10^5 copies of linearized GAPDH-containing plasmid DNA or water (non-template controls, NTC) were added to PCR reaction mixes containing 0.34 uM of either SYBR Green I (lines with solid diamonds (DNA) or “x's” (water)) or Compound 7 (lines with triangles (DNA) or circles (water)) and real time PCR was performed. […] The data in FIG. 8 were collected under the following conditions: PCR reactions consisted of a final concentration of 50 mM Tris-HCl (pH 8.6), 3 mM MgCl2, 50 μg/ml non-acetylated BSA (Sigma), 200 μM dNTPs (New England BioLabs), 500 nM GAPDH Forward primer ([NT]), 500 nM GAPDH Reverse primer ([NT]) (Integrated DNA Technologies), 1 U Hot-Start Cheetah Taq (Biotium, Inc.) and either 0.34 uM SYBR Green I (Life Technologies) or 0.34 uM compound 7. One microliter of 5×10^5 copies linearized pCMV-SPORT6 GAPDH plasmid (Open Biosystems) was added to each 20 ul reaction. Real time PCR was performed using the RotorGeneQ with the following cycling conditions: 95° C. for 2 minutes, followed by 45 cycles of 95° C. for 5 seconds and 60° C. for 30 seconds, with data acquisition during the elongation stage on the green channel.

[7] = 0.5 μM dye concentration, DNA 0.015-2 ng
[8] = in the presence of dsDNA, 10 mM pH 7.4 Tris buffer, room temperature

Question: Which photostability [1] does the source give for CC(=N)NCc1ccc2c(c1)C(C)(C)C(=CC(C)=CC1=[N+](C)c3ccc(CNC(C)=N)cc3C1(C)C)N2C [Compound 36] here?
Answer: high

Question: What about the emission wavelength (calf thymus dsDNA) of the same compound?
Answer: ~565 nm

Question: What about the “staining of nuclei of fixed cells” value [2] of the same compound?
Answer: good specificity

Question: For CN(C)CCCN(CCCN(C)C)c1cc(C=C2Sc3ccccc3N2C)c2ccccc2[n+]1-c1ccccc1 [PicoGreen, reference compound], which “linearity of fluorescence at lower DNA concentrations” value (calf thymus DNA; [7]) is on record?
Answer: lower than that of compound 7

Question: What does the source list for CCCN(CCCNC1=CC(=Cc2sc3ccccc3[n+]2C)c2ccccc2N1c1ccccc1)C(=N)N [compound 5]?
Answer: quantitation of cell numbers in cell suspensions (Jurkat cells): can be used to quantitate cell numbers; quantitation of cell numbers in adherent cell cultures (adherent HeLa cells): can be used to quantitate cell numbers; staining of nuclei of live cells (live HeLa cells): can specifically stain the nuclei; staining of nuclei of fixed cells [3]: can specifically stain the nuclei; fluorescence upon DNA binding (calf thymus dsDNA; 10 mM pH 7.4 Tris, with DNA): highly fluorescent; absorption maximum (calf thymus dsDNA; [8]): ~470 nm; emission maximum (calf thymus dsDNA; [8]): ~520 nm; DNA amount range of linearity of fluorescence (calf thymus DNA; 1 uM concentration (FIG. 4B)): 0.05 to 250 ng; DNA amount range over which fluorescence is linear (calf thymus DNA; 1 mM dye concentration): 0.04 to 250 ng

Question: With CCCN(CCCNC1=CC(=Cc2sc3cccc4c3[n+]2CCC4)c2ccccc2N1c1ccccc1)C1=NCCN1 [compound 7] as the compound, how does the “effect on HRM analysis resolution” value [4] read?
Answer: improves HRM analysis resolution

Question: What about the “amplification of target amplicon from serial cDNA dilutions” value [5] of the same compound?
Answer: efficient amplification

Question: What about the “quantitation of cell numbers in cell suspensions” value (Jurkat cells) of the same compound?
Answer: can be used to quantitate cell numbers

Question: And the “quantitation of cell numbers in adherent cell cultures” value (adherent HeLa cells)?
Answer: can be used to quantitate cell numbers

Question: What about the “staining of nuclei of live cells” value (live HeLa cells) of the same compound?
Answer: can specifically stain the nuclei

Question: And the “staining of nuclei of fixed cells” value [3]?
Answer: can specifically stain the nuclei

Question: And the “Ct value (in words)” value [6]?
Answer: early

Question: What about the “amplification of target amplicon” value [6] of the same compound?
Answer: efficient amplification

Question: And the endpoint fluorescent signal [6]?
Answer: high

Question: And the “sensitivity (slope of the titration curve) compared to PicoGreen” value (calf thymus DNA; [7])?
Answer: more sensitive than PicoGreen

Question: Which “staining of nuclei of live cells” value (live HeLa cells) does the source give for CCCN(CCCNC1=CC(=Cc2sc3cccc4c3[n+]2CCC4)c2ccccc2N1c1ccccc1)C(=N)N [compound 8] here?
Answer: can specifically stain the nuclei

Question: And the “staining of nuclei of fixed cells” value [3]?
Answer: can specifically stain the nuclei
